Results as given in PMC9229919, “4-Aminoquinoline-Based Adamantanes as Potential Anticholinesterase Agents in Symptomatic Treatment of Alzheimer’s Disease” (Pharmaceutics, 2022).
Like-named read-outs stand apart in the source and are kept apart here.

Columns and labels:
[1] = Ferric reducing antioxidant power (FRAP) assay; details: mean ± standard error of three experiments;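 further: expressed as µM Fe2+ equivalents from an FeSO4·7H2O standard curve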
How it was run: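 Compounds at 10 and 100 µM were mixed with FRAP reagent (300 mM acetate buffer pH 3.6, TPTZ in HCl, FeCl3, 10:1:1) and incubated 60 min at 37 °C. Fe^2+-TPTZ formation read at 593 nm against a blank. Values derived from an Fe2SO4·7H2O standard curve, three independent experiments.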

[2] = Reverse-phase thin-layer chromatographic lipophilicity (RF, RM0); format: physicochemical; details: for RM0: intercept of RM = RM0 + bC; for b: slope of RM = RM0 + bC; for RF, Methanol/Water/Hydrochloric acid (conc.), mobile phase I / RF, Dioxane/Water/Hydrochloric acid (conc.), mobile phase II / RF, Methanol/Water/Hydrochloric acid (conc.), mobile phase II / RF, Acetone/Water/Hydrochloric acid (conc.), mobile phase III / RF, Dioxane/Water/Hydrochloric acid (conc.), mobile phase III / RF, Methanol/Water/Hydrochloric acid (conc.), mobile phase III / RF, Dioxane/Water/Hydrochloric acid (conc.), mobile phase IV / RF, Acetone/Water/Hydrochloric acid (conc.), mobile phase IV / RF, Methanol/Water/Hydrochloric acid (conc.), mobile phase IV / RF, Acetone/Water/Hydrochloric acid (conc.), mobile phase IX / RF, Methanol/Water/Hydrochloric acid (conc.), mobile phase IX / RF, Dioxane/Water/Hydrochloric acid (conc.), mobile phase V / RF, Acetone/Water/Hydrochloric acid (conc.), mobile phase V / RF, Methanol/Water/Hydrochloric acid (conc.), mobile phase V / RF, Dioxane/Water/Hydrochloric acid (conc.), mobile phase VI / RF, Acetone/Water/Hydrochloric acid (conc.), mobile phase VI / RF, Methanol/Water/Hydrochloric acid (conc.), mobile phase VI / RF, Acetone/Water/Hydrochloric acid (conc.), mobile phase VII / RF, Methanol/Water/Hydrochloric acid (conc.), mobile phase VII / RF, Acetone/Water/Hydrochloric acid (conc.), mobile phase VIII / RF, Methanol/Water/Hydrochloric acid (conc.), mobile phase VIII: RP-18 silica; for RF, Methanol/Water/Hydrochloric acid (conc.), mobile phase I: I = 90%MeOH/5%H2O/5%HCl; for RF, Dioxane/Water/Hydrochloric acid (conc.), mobile phase II: II = 80%Dioxane/15%H2O/5%HCl; for RF, Methanol/Water/Hydrochloric acid (conc.), mobile phase II: II = 85%MeOH/10%H2O/5%HCl; for RF, Acetone/Water/Hydrochloric acid (conc.), mobile phase III: III = 70%AC/25%H2O/5%HCl; for RF, Dioxane/Water/Hydrochloric acid (conc.), mobile phase III: III = 70%Dioxane/25%H2O/5%HCl; for RF, Methanol/Water/Hydrochloric acid (conc.), mobile phase III: III = 80%MeOH/15%H2O/5%HCl; for RF, Dioxane/Water/Hydrochloric acid (conc.), mobile phase IV: IV = 60%Dioxane/35%H2O/5%HCl; for RF, Acetone/Water/Hydrochloric acid (conc.), mobile phase IV: IV = 65%AC/30%H2O/5%HCl; for RF, Methanol/Water/Hydrochloric acid (conc.), mobile phase IV: IV = 75%MeOH/20%H2O/5%HCl; for RF, Acetone/Water/Hydrochloric acid (conc.), mobile phase IX: IX = 40%AC/55%H2O/5%HCl; for RF, Methanol/Water/Hydrochloric acid (conc.), mobile phase IX: IX = 50%MeOH/45%H2O/5%HCl; for RF, Dioxane/Water/Hydrochloric acid (conc.), mobile phase V: V = 50%Dioxane/45%H2O/5%HCl; for RF, Acetone/Water/Hydrochloric acid (conc.), mobile phase V: V = 60%AC/35%H2O/5%HCl; for RF, Methanol/Water/Hydrochloric acid (conc.), mobile phase V: V = 70%MeOH/25%H2O/5%HCl; for RF, Dioxane/Water/Hydrochloric acid (conc.), mobile phase VI: VI = 40%Dioxane/55%H2O/5%HCl; for RF, Acetone/Water/Hydrochloric acid (conc.), mobile phase VI: VI = 55%AC/40%H2O/5%HCl; for RF, Methanol/Water/Hydrochloric acid (conc.), mobile phase VI: VI = 65%MeOH/30%H2O/5%HCl; for RF, Acetone/Water/Hydrochloric acid (conc.), mobile phase VII: VII = 50%AC/45%H2O/5%HCl; for RF, Methanol/Water/Hydrochloric acid (conc.), mobile phase VII: VII = 60%MeOH/35%H2O/5%HCl; for RF, Acetone/Water/Hydrochloric acid (conc.), mobile phase VIII: VIII = 45%AC/50%H2O/5%HCl; for RF, Methanol/Water/Hydrochloric acid (conc.), mobile phase VIII: VIII = 55%MeOH/40%H2O/5%HCl
How it was run: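 Reverse-phase TLC using mobile phases of methanol, acetone or dioxane with water and hydrochloric acid. Methanol varied in 10% steps; development distance 4.5 cm, ambient temperature (22±2 °C). RF measured and RM0 derived from retention.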

recombinant human AChE = target: T1, recombinant human AChE (Homo sapiens, UniProt P22303); assay: biochemical; format: biochemical; details: for IS: IS = Ki(BChE)/Ki(AChE), IS > 1 selective to AChE
T1 construct: gift of Dr Florian Nachon (Armed Forces Biomedical Research Institute, Brétigny-sur-Orge, France)
How it was run: (§1)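 Modified Ellman assay with acetylthiocholine and DTNB in 0.1 M sodium phosphate pH 7.4 (enzymes diluted with 0.1% BSA), ≤0.2% DMSO, 25 °C. At least three inhibitor concentrations per substrate level; Ki,app from Hunter–Downs equation, Ki from y-intercept and inhibition type from Ki,app vs [S].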

purified human BChE = target: T2, purified human BChE (Homo sapiens, UniProt P06276); assay: biochemical; format: biochemical
T2 construct: possibly also a gift of Dr Florian Nachon (the sentence is ambiguous)
How it was run: as §1

[3] = Acetone/Water/Hydrochloric acid (conc.)
[4] = Dioxane/Water/Hydrochloric acid (conc.)
[5] = Methanol/Water/Hydrochloric acid (conc.)
[6] = log (Ki/µM AChE), read-out: Y Measured 1 log(ki)Ache (converted)
[7] = ± standard error, 25 °C, ATCh substrate, read-out: Ki AChE

T2 sequence (P06276 29-602): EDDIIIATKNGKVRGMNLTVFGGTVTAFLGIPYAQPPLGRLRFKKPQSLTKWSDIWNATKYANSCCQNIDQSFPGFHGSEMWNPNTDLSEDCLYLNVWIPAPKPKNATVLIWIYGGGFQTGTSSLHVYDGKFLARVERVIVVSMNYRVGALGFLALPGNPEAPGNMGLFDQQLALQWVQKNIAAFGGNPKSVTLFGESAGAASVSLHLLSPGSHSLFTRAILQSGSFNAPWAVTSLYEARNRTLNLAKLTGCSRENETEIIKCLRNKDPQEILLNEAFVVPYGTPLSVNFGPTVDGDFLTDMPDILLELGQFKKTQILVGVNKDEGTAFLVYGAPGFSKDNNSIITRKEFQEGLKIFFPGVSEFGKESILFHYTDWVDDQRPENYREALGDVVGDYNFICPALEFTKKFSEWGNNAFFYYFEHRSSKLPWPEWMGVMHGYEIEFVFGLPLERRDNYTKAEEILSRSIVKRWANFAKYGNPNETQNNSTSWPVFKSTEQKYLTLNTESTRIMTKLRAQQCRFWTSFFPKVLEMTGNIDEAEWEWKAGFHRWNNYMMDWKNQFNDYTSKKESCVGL
T1 sequence (P22303 32-614): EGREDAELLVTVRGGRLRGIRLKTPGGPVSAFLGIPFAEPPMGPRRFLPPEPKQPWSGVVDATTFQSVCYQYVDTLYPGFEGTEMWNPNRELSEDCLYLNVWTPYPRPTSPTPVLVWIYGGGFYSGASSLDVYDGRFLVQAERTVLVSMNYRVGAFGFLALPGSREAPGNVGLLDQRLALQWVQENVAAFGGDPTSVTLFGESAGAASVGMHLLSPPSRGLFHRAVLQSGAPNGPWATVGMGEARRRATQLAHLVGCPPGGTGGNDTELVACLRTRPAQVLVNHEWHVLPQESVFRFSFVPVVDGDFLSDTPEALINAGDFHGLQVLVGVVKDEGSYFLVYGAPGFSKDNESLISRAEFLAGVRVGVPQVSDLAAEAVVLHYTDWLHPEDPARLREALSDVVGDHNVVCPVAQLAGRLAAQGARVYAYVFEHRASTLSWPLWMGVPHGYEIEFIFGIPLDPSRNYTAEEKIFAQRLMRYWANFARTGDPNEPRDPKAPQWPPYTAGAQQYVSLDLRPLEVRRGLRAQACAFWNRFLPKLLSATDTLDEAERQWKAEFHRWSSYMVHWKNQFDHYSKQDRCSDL

| SMILES | FRAP ([1]; 10 µM compound) [µM] | FRAP ([1]; 100 µM compound) [µM] | RM0 [2, 3] | b [2, 3] | RM0 [2, 4] | b [2, 4] | RM0 [2, 5] | b [2, 5] | RF, Methanol/Water/Hydrochloric acid (conc.), mobile phase I [2] | RF, Dioxane/Water/Hydrochloric acid (conc.), mobile phase II [2] | RF, Methanol/Water/Hydrochloric acid (conc.), mobile phase II [2] | RF, Acetone/Water/Hydrochloric acid (conc.), mobile phase III [2] | RF, Dioxane/Water/Hydrochloric acid (conc.), mobile phase III [2] | RF, Methanol/Water/Hydrochloric acid (conc.), mobile phase III [2] | RF, Dioxane/Water/Hydrochloric acid (conc.), mobile phase IV [2] | RF, Acetone/Water/Hydrochloric acid (conc.), mobile phase IV [2] | RF, Methanol/Water/Hydrochloric acid (conc.), mobile phase IV [2] | RF, Acetone/Water/Hydrochloric acid (conc.), mobile phase IX [2] | RF, Methanol/Water/Hydrochloric acid (conc.), mobile phase IX [2] | RF, Dioxane/Water/Hydrochloric acid (conc.), mobile phase V [2] | also measured |
| --- | --- | --- | --- | --- | --- | --- | --- | --- | --- | --- | --- | --- | --- | --- | --- | --- | --- | --- | --- | --- | --- |
| CC(CCNCC12CC3CC(CC(C3)C1)C2)Nc1ccnc2cc(Cl)ccc12 (stereo not shown) [Compound 12] | 24.2 ± 0.0 | 37 ± 7 | 1.835 | 3.007 | 0.75 | 1.647 | 2.4121 | 3.174 | 0.71 | 0.75 | 0.66 | 0.62 | 0.72 | 0.53 | 0.72 | 0.58 | 0.5 | 0.15 | 0.1 | 0.54 | RF, Acetone/Water/Hydrochloric acid (conc.), mobile phase V [2]: 0.48; RF, Methanol/Water/Hydrochloric acid (conc.), mobile phase V [2]: 0.44; RF, Dioxane/Water/Hydrochloric acid (conc.), mobile phase VI [2]: 0.4; RF, Acetone/Water/Hydrochloric acid (conc.), mobile phase VI [2]: 0.41; RF, Methanol/Water/Hydrochloric acid (conc.), mobile phase VI [2]: 0.36; RF, Acetone/Water/Hydrochloric acid (conc.), mobile phase VII [2]: 0.34; RF, Methanol/Water/Hydrochloric acid (conc.), mobile phase VII [2]: 0.25; RF, Acetone/Water/Hydrochloric acid (conc.), mobile phase VIII [2]: 0.29; RF, Methanol/Water/Hydrochloric acid (conc.), mobile phase VIII [2]: 0.18; IS (recombinant human AChE): 2.1; Ki (recombinant human AChE; [6]): 0.56 µM; Ki (recombinant human AChE; [7]): 0.56 ± 0.02 µM; Ki (purified human BChE; Ki BChE, ± standard error, 25 °C, ATCh substrate): 1.2 ± 0.1 µM |
| Clc1ccc2c(NCCCCCCNCC34CC5CC(CC(C5)C3)C4)ccnc2c1 [Compound 4] | 1.9 ± 0.5 | 58 ± 10 | 2.036 | 3.254 | 0.9103 | 1.922 | 2.899 | 3.742 | 0.72 | 0.78 | 0.66 | 0.6 | 0.73 | 0.47 | 0.72 | 0.55 | 0.49 | 0.11 | 0.06 | 0.52 | RF, Acetone/Water/Hydrochloric acid (conc.), mobile phase V [2]: 0.45; RF, Methanol/Water/Hydrochloric acid (conc.), mobile phase V [2]: 0.4; RF, Dioxane/Water/Hydrochloric acid (conc.), mobile phase VI [2]: 0.38; RF, Acetone/Water/Hydrochloric acid (conc.), mobile phase VI [2]: 0.37; RF, Methanol/Water/Hydrochloric acid (conc.), mobile phase VI [2]: 0.31; RF, Acetone/Water/Hydrochloric acid (conc.), mobile phase VII [2]: 0.33; RF, Methanol/Water/Hydrochloric acid (conc.), mobile phase VII [2]: 0.2; RF, Acetone/Water/Hydrochloric acid (conc.), mobile phase VIII [2]: 0.26; RF, Methanol/Water/Hydrochloric acid (conc.), mobile phase VIII [2]: 0.13; IS (recombinant human AChE): 1.1; Ki (recombinant human AChE; [6]): 0.67 µM; Ki (recombinant human AChE; [7]): 0.67 ± 0.02 µM; Ki (purified human BChE; logarithm of Ki in µM, BChE, dependent variable of the QSAR model, read-out: Y Measured 2 log(ki)Bche, log (Ki/µM BChE) (converted)): 0.76 µM; Ki (purified human BChE; ± standard error, 25 °C, ATCh substrate, read-out: Ki BChE): 0.76 ± 0.06 µM |
